Reference: patent US11958831B2, “Pyrazole compounds, pharmaceutical compositions thereof and use thereof” (ARTIVILA (SHENZHEN) INNOVATION CENTER, LTD., priority 2018, dated 2024)

Key:
[1] = tested on: TNFα secretion in THP-1 cells; assay: Cellular activity assay: LPS-stimulated TNFα secretion in THP-1 cells (ELISA); type: cell-based; conditions: Homo sapiens, LPS 1 μg/mL, 4.5 h, read-out: IC50 inhibiting TNFα secretion in THP-1 cells stimulated by LPS
Description: Inhibition of IRAK4 by the compounds of the present application was evaluated in THP-1 cells for cellular activity. The stimulus used in this experiment was LPS. LPS is a TLR4 agonist that stimulates the secretion of TNFα through TLR-IRAK4 signaling pathway in the THP-1 cells. Once the signaling pathway is inhibited by IRAK4 inhibitors, the production of TNFα is inhibited. In this experiment, the secretion of TNFα was detected by ELISA.
150 μL of RPMI-1640 medium (Gibco, catalog No.: 11875-085) solution containing 10000 THP-1 cells were added to each well of a 96-well plate and then 25 μL of a test compound solution of 8 times the final concentration (starting from […], 3-fold dilution, 8 concentrations, each concentration containing 4% DMSO RPMI-1640 medium) were added, and they were mixed uniformly and incubated at 37° C. for 30 min. 25 μL of RPMI-1640 medium solution containing LPS were added to each well (the final LPS concentration was 1 μg/mL and the final DMSO concentration was 0.5%), mixed uniformaly, and incubated at 37° C. for 4.5 h. The 96-well plate was rotated at 2000 rpm for 5 min, then 50 μL of supernatant was taken, and the TNFα content in the supernatant was determined with a human ELISA kit (Life Technologies, catalog No.: KHC3011). The IC50 (Table 2) of the compound was calculated by XL-Fit.

IRAK4 kinase = IRAK4 kinase (Homo sapiens (Human), UniProt Q9NWZ3); assay: IRAK4 kinase activity assay (mobility shift, Km ATP); type: biochemical; conditions: Km ATP (15.6 μM ATP), 1 nM IRAK4, 60 min room temperature
Description: Inhibitory activity (IC50) of the compounds against IRAK4 kinase under Km ATP was detected through mobility spectrum analysis (MSA). IRAK4 kinase was purchased from Carna (Cat. No.: 09-145, batch No.: 14CBS-0020H), and Kinase Substrate 8 was purchased from GL Biochem (Cat. No.: 112396, batch No.: P171207-MJI112396).
The compounds were prepared with DMSO to 100 times the final reaction concentration and diluted to 10 concentrations in sequence at a 3-fold dilution ratio starting from 1 μM. Then 0.25 μL was transferred to a 384-well plate using Echo550. A 1× kinase buffer (50 mM HEPES, pH=7.5, 0.0015% Brij-35, 10 mM MgCl2, 2 mM DTT) was used to prepare a kinase solution of 2.5 times the final concentration. Then 10 μL of the kinase solution of 2.5 times the final concentration was added to each compound well, shaken and mixed uniformly, and incubated at room temperature for 10 min. A 1× kinase buffer was used to prepare a mixed solution of ATP and substrate Kinase Substrate 8 with a concentration of 25/15 times the final concentration. 15 μL of the mixed solution of ATP and the substrate with a concentration of 25/15 times the final concentration were added to each well (the final concentration of IRAK4 kinase was 1 nM, the final concentration of the substrate was 3 μM, and the final concentration of ATP was 15.6 μM), shaken and mixed uniformly, and reacted at room temperature for 60 min. Finally, 30 μL of stopping solution (100 mM HEPES, pH=7.5, 0.0015% Brij-35, 0.2% Coating Reagent #3, 50 mM EDTA) was added to terminate the reaction. CaliperEZ Reader II was used to read data about conversion rates that was then converted into data about inhibition rates. According to the data about the inhibition rate at each concentration, the half maximal inhibitory concentration (IC50) (Table 1) was calculated by a Logit method.

IRAK4 kinase, sequence (Q9NWZ3 whole entry): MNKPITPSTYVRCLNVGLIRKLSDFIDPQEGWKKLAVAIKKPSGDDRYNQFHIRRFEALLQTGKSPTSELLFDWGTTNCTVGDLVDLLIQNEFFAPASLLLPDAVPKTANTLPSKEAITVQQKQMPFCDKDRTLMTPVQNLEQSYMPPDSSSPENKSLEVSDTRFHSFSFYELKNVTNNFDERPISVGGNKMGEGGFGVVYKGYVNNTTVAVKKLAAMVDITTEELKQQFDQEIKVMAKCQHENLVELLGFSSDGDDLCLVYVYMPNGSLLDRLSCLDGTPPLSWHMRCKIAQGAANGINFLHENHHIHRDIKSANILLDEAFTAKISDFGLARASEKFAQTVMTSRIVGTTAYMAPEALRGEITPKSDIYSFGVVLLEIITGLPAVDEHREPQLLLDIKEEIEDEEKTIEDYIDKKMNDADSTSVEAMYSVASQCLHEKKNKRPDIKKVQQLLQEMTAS

SMILES | IC50 [1] [nM] | IC50 (IRAK4 kinase) [nM]
O=C(Nc1cn(C2CN(C3CCN(C(=O)CO)CC3)C2)nc1C(F)F)c1cccc(-c2cnn(CC(F)(F)F)c2)n1 [Example 4, N-(3-(difluoromethyl)-1-(1-(1-(2-hydroxyacetyl)piperidin-4-yl)azetidin-3-yl)-1H-pyrazol-4-yl)-6-(1-(2,2,2-trifluoroethyl)-1H-pyrazol-4-yl)-2-picolinamide] | 33 | 0.68
O=C(Nc1cn(C2CN(C3CCN(C(=O)CO)CC3)C2)nc1C(F)F)c1cccc(-c2cnn(CC(F)F)c2)n1 [Example 2, 6-(1-(2,2-Difluoroethyl)-1H-pyrazol-4-yl)-N-(3-(difluoromethyl)-1-(1-(1-(2-hydroxyacetyl)piperidin-4-yl)azetidin-3-yl)-1H-pyrazol-4-yl)-2-picolinamide] | 27 | 0.99
CC(=O)N1CCC(N2CC(n3cc(NC(=O)c4cccc(-c5cnn(CC(F)F)c5)n4)c(C(F)F)n3)C2)CC1 [Example 1, N-(1-(1-(1-acetylpiperidin-4-yl)azetidin-3-yl)-3-(difluoromethyl)-1H-pyrazol-4-yl)-6-(1-(2,2-difluoroethyl)-1H-pyrazol-4-yl)-2-picolinamide] | 29 | 1.2
CC(=O)N1CCC(N2CC(n3cc(NC(=O)c4cccc(-c5cc[nH]n5)n4)c(C(F)F)n3)C2)CC1 [Example 24, N-(1-(1-(1-acetylpiperidin-4-yl)azetidin-3-yl)-3-(difluoromethyl)-1H-pyrazol-4-yl)-6-(1H-pyrazole-3-yl)-2-picolinamide] | 20 | 0.59
CC(C)(O)C(=O)N1CCC(N2CC(n3cc(NC(=O)c4cccc(-c5cnn(CC(F)F)c5)n4)c(C(F)F)n3)C2)CC1 [Example 36, 6-(1-(2,2-Difluoroethyl)-1H-pyrazol-4-yl)-N-(3-(difluoromethyl)-1-(1-(1-(2-hydroxy-2-methylpropionyl)piperidin-4-yl)azetidin-3-yl)-1H-pyrazol-4-yl)-2-picolinamide] | 50 | 0.96
CC(C)(C#N)n1cc(-c2cccc(C(=O)Nc3cn(C4CN(C5CCN(C(=O)CO)CC5)C4)nc3C(F)F)n2)cn1 [Example 43, 6-(1-(2-Cyanopropan-2-yl)-1H-pyrazol-4-yl)-N-(3-(difluoromethyl)-1-(1-(1-(2-hydroxyacetyl)piperidin-4-yl)azetidin-3-yl)-1H-pyrazol-4-yl)-2-picolinamide] | 42 | 0.97
CS(=O)(=O)N1CCC(N2CC(n3cc(NC(=O)c4cccc(-c5cnn(CC(F)(F)F)c5)n4)c(C(F)F)n3)C2)CC1 [Example 33, N-(3-(difluoromethyl)-1-(1-(1-(methylsulfonyl)piperidin-4-yl)azetidin-3-yl)-1H-pyrazol-4-yl)-6-(1-(2,2,2-trifluoroethyl)-1H-pyrazol-4-yl)-2-picolinamide] | – | 4.9
CC(C)C(=O)N1CCC(N2CC(n3cc(NC(=O)c4cccc(-c5cc[nH]n5)n4)c(C(F)F)n3)C2)CC1 [Example 29, N-(3-(difluoromethyl)-1-(1-(1-isobutyrylpiperidin-4-yl)azetidin-3-yl)-1H-pyrazol-4-yl)-6-(1H-pyrazol-3-yl)-2-picolinamide] | – | 0.81
C[C@H](O)C(=O)N1CCC(N2CC(n3cc(NC(=O)c4cccc(-c5cnn(CC(F)(F)F)c5)n4)c(C(F)F)n3)C2)CC1 [Example 30, (S)—N-(3-(difluoromethyl)-1-(1-(1-(2-hydroxypropionyl)piperidin-4-yl)azetidin-3-yl)-1H-pyrazol-4-yl)-6-(1-(2,2,2-trifluoroethyl)-1H-pyrazol-4-yl)-2-picolinamide] | – | 3.3
CS(=O)(=O)N1CCC(N2CC(n3cc(NC(=O)c4cccc(-c5cnn(CC(F)F)c5)n4)c(C(F)F)n3)C2)CC1 [Example 37, 6-(1-(2,2-Difluoroethyl)-1H-pyrazol-4-yl)-N-(3-(difluoromethyl)-1-(1-(1-(methylsulfonyl)piperidin-4-yl)azetidin-3-yl)-1H-pyrazol-4-yl)-2-picolinamide] | – | 5.8
CC(=O)N1CCC(N2CC(n3cc(NC(=O)c4cccc(-c5cnn(C6(C#N)CC6)c5)n4)c(C(F)F)n3)C2)CC1 [Example 9, N-(1-(1-(1-acetylpiperidin-4-yl)azetidin-3-yl)-3-(difluoromethyl)-1H-pyrazol-4-yl)-6-(1-(1-cyanocyclopropyl)-1H-pyrazol-4-yl)-2-picolinamide] | – | 2.5
CC(=O)N1CCC(N2CC(n3cc(NC(=O)c4cccc(-c5cnn(C6(CN)CCC6)c5)n4)c(C(F)F)n3)C2)CC1 [Example 11, N-(1-(1-(1-acetylpiperidin-4-yl)azetidin-3-yl)-3-(difluoromethyl)-1H-pyrazol-4-yl)-6-(1-(1-(aminomethyl)cyclobutyl)-1H-pyrazol-4-yl)-2-picolinamide] | – | 1.6

Next, values leading:

IC50 [1] [nM] | IC50 (IRAK4 kinase) [nM] | SMILES
26 | 0.59 | C[C@@H](O)C(=O)N1CCC(N2CC(n3cc(NC(=O)c4cccc(-c5cc[nH]n5)n4)c(C(F)F)n3)C2)CC1 [Example 40, (R)—N-(3-(difluoromethyl)-1-(1-(1-(2-hydroxypropionyl)piperidin-4-yl)azetidin-3-yl)-1H-pyrazol-4-yl)-6-(1H-pyrazol-3-yl)-2-picolinamide]
18 | 0.51 | O=C(Nc1cn(C2CN(C3CCN(C(=O)CO)CC3)C2)nc1C(F)F)c1cccc(-c2cc[nH]n2)n1 [Example 27, N-(3-(difluoromethyl)-1-(1-(1-(2-hydroxyacetyl)piperidin-4-yl)azetidin-3-yl)-1H-pyrazol-4-yl)-6-(1H-pyrazol-3-yl)-2-picolinamide]
43 | 0.91 | CC(=O)N1CCC(N2CC(n3cc(NC(=O)c4cccc(-c5cnn(C(C)(C)C#N)c5)n4)c(C(F)F)n3)C2)CC1 [Example 12, N-(1-(1-(1-acetylpiperidin-4-yl)azetidin-3-yl)-3-(difluoromethyl)-1H-pyrazol-4-yl)-6-(1-(2-cyanopropan-2-yl)-1H-pyrazol-4-yl)-2-picolinamide]
25 | 0.73 | CC(=O)N1CCC(N2CC(n3cc(NC(=O)c4cccc(-c5cnn(C(C)(C)CN)c5)n4)c(C(F)F)n3)C2)CC1 [Example 13, N-(1-(1-(1-acetylpiperidin-4-yl)azetidin-3-yl)-3-(difluoromethyl)-1H-pyrazol-4-yl)-6-(1-(1-amino-2-methylpropan-2-yl)-1H-pyrazol-4-yl)-2-picolinamide]
35 | 0.87 | CC(=O)N1CCC(N2CC(n3cc(NC(=O)c4cccc(-c5cnn(CC(F)(F)F)c5)n4)c(C(F)F)n3)C2)CC1 [Example 3, N-(1-(1-(1-acetylpiperidin-4-yl)azetidin-3-yl)-3-(difluoromethyl)-1H-pyrazol-4-yl)-6-(1-(2,2,2-trifluoroethyl)-1H-pyrazol-4-yl)-2-picolinamide]
– | 0.57 | CN(C)C(=O)N1CCC(N2CC(n3cc(NC(=O)c4cccc(-c5cnn(C(C)(C)CN)c5)n4)c(C(F)F)n3)C2)CC1 [Example 17, 6-(1-(1-Amino-2-methylpropan-2-yl)-1H-pyrazol-4-yl)-N-(3-(difluoromethyl)-1-(1-(1-(dimethylcarbamoyl)piperidin-4-yl)azetidin-3-yl)-1H-pyrazol-4-yl)-2-picolinamide]
